Legend:
Format in all cases: in vivo
[1] = tested on: Chilo suppressalis (Striped Rice Stemborer); assay: Example B1: Activity against Chilo suppressalis, artificial diet in 24-well microtiter plates; settings: 144 h, application rate 200 ppm, L2 larvae, assessed 6 days after infestation, read-out: control (at least one of mortality, anti-feedant effect, growth inhibition)
Description: Example B1: Activity Against Chilo suppressalis (Striped Rice Stemborer)
24-well microtiter plates with artificial diet were treated with aqueous test solutions prepared from 10′000 ppm DMSO stock solutions by pipetting. After drying, the plates were infested with L2 larvae (6-8 per well). The samples were assessed for mortality, anti-feeding effect, and growth inhibition in comparison to untreated samples 6 days after infestation. Control of Chilo suppressalis by a test sample is given when at least one of the categories mortality, anti-feedant effect, and growth inhibition is higher than the untreated sample.

[2] = tested on: Plutella xylostella (Diamond Back Moth); assay: Example B5: Activity against Plutella xylostella, artificial diet in 24-well microtiter plates; settings: 192 h, application rate 200 ppm, eggs, assessed 8 days after infestation, read-out: effect in at least one of the two categories (mortality or growth inhibition)
Description: Example B5: Activity Against Plutella xylostella (Diamond Back Moth)
24-well microtiter plates with artificial diet were treated with aqueous test solutions prepared from 10′000 ppm DMSO stock solutions by pipetting. After drying, Plutella eggs were pipetted through a plastic stencil onto a gel blotting paper and the plate was closed with it. The samples were assessed for mortality and growth inhibition in comparison to untreated samples 8 days after infestation.

[3] = tested on: Spodoptera littoralis (Egyptian Cotton Leaf Worm); assay: Example B6: Activity against Spodoptera littoralis, sprayed cotton leaf discs on agar; settings: foliar, 72 h, application rate 200 ppm, L1 larvae, assessed 3 days after infestation, read-out: control (at least one of mortality, anti-feedant effect, growth inhibition)
Description: Example B6: Activity Against Spodoptera littoralis (Egyptian Cotton Leaf Worm)
Cotton leaf discs were placed onto agar in 24-well microtiter plates and sprayed with aqueous test solutions prepared from 10′000 ppm DMSO stock solutions. After drying the leaf discs were infested with five L1 larvae. The samples were assessed for mortality, anti-feeding effect, and growth inhibition in comparison to untreated samples 3 days after infestation. Control of Spodoptera littoralis by a test sample is given when at least one of the categories mortality, anti-feedant effect, and growth inhibition is higher than the untreated sample.

[4] = tested on: Diabrotica Balteata (Corn Root Worm); assay: Example B2: Activity against Diabrotica balteata, sprayed maize sprouts on agar; settings: 96 h, application rate 200 ppm, L2 larvae, assessed 4 days after infestation, read-out: effect in at least one of the two categories (mortality or growth inhibition)
Description: Example B2: Activity Against Diabrotica Balteata (Corn Root Worm)
Maize sprouts placed onto an agar layer in 24-well microtiter plates were treated with aqueous test solutions prepared from 10′000 ppm DMSO stock solutions by spraying. After drying, the plates were infested with L2 larvae (6 to 10 per well). The samples were assessed for mortality and growth inhibition in comparison to untreated samples 4 days after infestation.

[5] = tested on: Myzus persicae (Green peach aphid); assay: Example B4: Activity against Myzus persicae, feeding/contact activity on sunflower leaf discs; settings: foliar, 144 h, application rate 200 ppm, aphid population of mixed ages, assessed 6 days after infestation
Description: Example B4: Activity against Myzus persicae (Green peach aphid) Feeding/Contact activity Sunflower leaf discs were placed onto agar in a 24-well microtiter plate and sprayed with aqueous test solutions prepared from 10′000 ppm DMSO stock solutions. After drying, the leaf discs were infested with an aphid population of mixed ages. The samples were assessed for mortality 6 days after infestation.

[6] = tested on: Euschistus heros (Neotropical Brown Stink Bug); assay: Example B3: Activity against Euschistus heros, sprayed soybean leaves on agar; settings: 120 h, application rate 200 ppm, N2 nymphs, assessed 5 days after infestation, read-out: effect in at least one of the two categories (mortality or growth inhibition)
Description: Example B3: Activity Against Euschistus heros (Neotropical Brown Stink Bug)
Soybean leaves on agar in 24-well microtiter plates were sprayed with aqueous test solutions prepared from 10′000 ppm DMSO stock solutions. After drying the leaves were infested with N2 nymphs. The samples were assessed for mortality and growth inhibition in comparison to untreated samples 5 days after infestation.

CCS(=O)(=O)c1c(N2Cc3cc4c(cc3C2=O)OC(F)(F)O4)nc2ccc(Br)cn12 [P10, 6-(6-bromo-3-ethylsulfonyl-imidazo[1,2-a]pyridin-2-yl)-2,2-difluoro-5H-[1,3]dioxolo[4,5-f]isoindol-7-one]
≥ 80%: control (mortality, anti-feedant effect or growth inhibition) at 200 ppm [1]

CCS(=O)(=O)c1c(N2Cc3cc4c(cc3C2=O)OC(F)(F)O4)nc2cc(Br)ccn12 [P9, 6-(7-bromo-3-ethylsulfonyl-imidazo[1,2-a]pyridin-2-yl)-2,2-difluoro-5H-[1,3]dioxolo[4,5-f]isoindol-7-one]
≥ 80%: percent effect (mortality or growth inhibition) at 200 ppm [2] | percent control (mortality, anti-feedant effect or growth inhibition) at 200 ppm [3] | control (mortality, anti-feedant effect or growth inhibition) at 200 ppm [1] | percent effect (mortality or growth inhibition) at 200 ppm [4]

CCS(=O)(=O)c1c(N2Cc3cc4c(cc3C2=O)OC(F)(F)O4)nc2ccc(C(C)(F)F)cn12 [P7, 6-[6-(1,1-difluoroethyl)-3-ethylsulfonyl-imidazo[1,2-a]pyridin-2-yl]-2,2-difluoro-5H-[1,3]dioxolo[4,5-f]isoindol-7-one]
≥ 80%: percent effect (mortality or growth inhibition) at 200 ppm [2] | percent control (mortality, anti-feedant effect or growth inhibition) at 200 ppm [3] | control (mortality, anti-feedant effect or growth inhibition) at 200 ppm [1] | percent effect (mortality or growth inhibition) at 200 ppm [4]

CCS(=O)(=O)c1c(N2Cc3cc4c(cc3C2=O)OC(F)(F)O4)nn2cc(C(F)(F)F)ccc12 [P3, 6-[3-ethylsulfonyl-6-(trifluoromethyl)pyrazolo[1,5-a]pyridin-2-yl]-2,2-difluoro-5H-[1,3]dioxolo[4,5-f]isoindol-7-one]
≥ 80%: percent effect (mortality or growth inhibition) at 200 ppm [2] | mortality at 200 ppm [5] | percent control (mortality, anti-feedant effect or growth inhibition) at 200 ppm [3] | control (mortality, anti-feedant effect or growth inhibition) at 200 ppm [1] | percent effect (mortality or growth inhibition) at 200 ppm [4]

CCS(=O)(=O)c1c(N2Cc3cc4c(cc3C2=O)OC(F)(F)O4)nn2cc(Cl)ccc12 [P14, 6-(6-chloro-3-ethylsulfonyl-pyrazolo[1,5-a]pyridin-2-yl)-2,2-difluoro-5H-[1,3]dioxolo[4,5-f]isoindol-7-one]
≥ 80%: percent effect (mortality or growth inhibition) at 200 ppm [2] | mortality at 200 ppm [5] | percent control (mortality, anti-feedant effect or growth inhibition) at 200 ppm [3] | control (mortality, anti-feedant effect or growth inhibition) at 200 ppm [1] | percent effect (mortality or growth inhibition) at 200 ppm [4]

CCS(=O)(=O)c1c(N2Cc3cc4c(cc3C2=O)OC(F)(F)O4)nc2cc(C(F)(F)F)ccn12 [P5, 6-[3-ethylsulfonyl-7-(trifluoromethyl)imidazo[1,2-a]pyridin-2-yl]-2,2-difluoro-5H-[1,3]dioxolo[4,5-f]isoindol-7-one]
≥ 80%: percent effect (mortality or growth inhibition) at 200 ppm [2] | percent control (mortality, anti-feedant effect or growth inhibition) at 200 ppm [3] | control (mortality, anti-feedant effect or growth inhibition) at 200 ppm [1] | percent effect (mortality or growth inhibition) at 200 ppm [4]

CCS(=O)(=O)c1c(N2Cc3cc4c(cc3C2=O)OC(F)(F)O4)nc2cc(Cl)ccn12 [P13, 6-(7-chloro-3-ethylsulfonyl-imidazo[1,2-a]pyridin-2-yl)-2,2-difluoro-5H-[1,3]dioxolo[4,5-f]isoindol-7-one]
≥ 80%: percent effect (mortality or growth inhibition) at 200 ppm [2] | percent control (mortality, anti-feedant effect or growth inhibition) at 200 ppm [3] | control (mortality, anti-feedant effect or growth inhibition) at 200 ppm [1] | percent effect (mortality or growth inhibition) at 200 ppm [4]

CCS(=O)(=O)c1c(N2Cc3cc4c(cc3C2=O)OC(F)(F)O4)nc2ccc(C(F)(F)F)cn12 [P1, 6-[3-ethylsulfonyl-6-(trifluoromethyl)imidazo[1,2-a]pyridin-2-yl]-2,2-difluoro-5H-[1,3]dioxolo[4,5-f]isoindol-7-one]
≥ 80%: percent effect (mortality or growth inhibition) at 200 ppm [2] | mortality at 200 ppm [5] | percent control (mortality, anti-feedant effect or growth inhibition) at 200 ppm [3] | control (mortality, anti-feedant effect or growth inhibition) at 200 ppm [1] | percent effect (mortality or growth inhibition) at 200 ppm [4]

CCS(=O)(=O)c1c(N2Cc3cc4c(cc3C2=O)OC(F)(F)O4)nn2ccc(C(F)(F)F)cc12 [P6, 6-[3-ethylsulfonyl-5-(trifluoromethyl)pyrazolo[1,5-a]pyridin-2-yl]-2,2-difluoro-5H-[1,3]dioxolo[4,5-f]isoindol-7-one]
≥ 80%: percent effect (mortality or growth inhibition) at 200 ppm [2] | percent control (mortality, anti-feedant effect or growth inhibition) at 200 ppm [3] | control (mortality, anti-feedant effect or growth inhibition) at 200 ppm [1] | percent effect (mortality or growth inhibition) at 200 ppm [4]

CCS(=O)(=O)c1c(N2Cc3cc4c(cc3C2=O)OC(F)(F)O4)nc2cc(C(C)(F)F)ccn12 [P8, 6-[7-(1,1-difluoroethyl)-3-ethylsulfonyl-imidazo[1,2-a]pyridin-2-yl]-2,2-difluoro-5H-[1,3]dioxolo[4,5-f]isoindol-7-one]
≥ 80%: percent effect (mortality or growth inhibition) at 200 ppm [2] | percent control (mortality, anti-feedant effect or growth inhibition) at 200 ppm [3] | control (mortality, anti-feedant effect or growth inhibition) at 200 ppm [1] | percent effect (mortality or growth inhibition) at 200 ppm [4]

CCS(=O)(=O)c1cc2ccccc2nc1N1Cc2cc3c(cc2C1=O)OC(F)(F)O3 [P2, 6-(3-ethylsulfonyl-2-quinolyl)-2,2-difluoro-5H-[1,3]dioxolo[4,5-f]isoindol-7-one]
≥ 80%: percent effect (mortality or growth inhibition) at 200 ppm [2] | percent effect (mortality or growth inhibition) at 200 ppm [6] | mortality at 200 ppm [5] | percent control (mortality, anti-feedant effect or growth inhibition) at 200 ppm [3] | percent effect (mortality or growth inhibition) at 200 ppm [4]

CCS(=O)(=O)c1c(N2Cc3cc4c(cc3C2=O)OC(F)(F)O4)nc2ccc(Cl)cn12 [P11, 6-(6-chloro-3-ethylsulfonyl-imidazo[1,2-a]pyridin-2-yl)-2,2-difluoro-5H-[1,3]dioxolo[4,5-f]isoindol-7-one]
≥ 80%: percent effect (mortality or growth inhibition) at 200 ppm [2] | percent effect (mortality or growth inhibition) at 200 ppm [6] | percent control (mortality, anti-feedant effect or growth inhibition) at 200 ppm [3] | control (mortality, anti-feedant effect or growth inhibition) at 200 ppm [1] | percent effect (mortality or growth inhibition) at 200 ppm [4]

CCS(=O)(=O)c1c(N2Cc3cc4c(cc3C2=O)OC(F)(F)O4)nn2ccc(Cl)cc12 [P15, 6-(5-chloro-3-ethylsulfonyl-pyrazolo[1,5-a]pyridin-2-yl)-2,2-difluoro-5H-[1,3]dioxolo[4,5-f]isoindol-7-one]
≥ 80%: percent effect (mortality or growth inhibition) at 200 ppm [2] | percent effect (mortality or growth inhibition) at 200 ppm [6] | percent control (mortality, anti-feedant effect or growth inhibition) at 200 ppm [3] | control (mortality, anti-feedant effect or growth inhibition) at 200 ppm [1] | percent effect (mortality or growth inhibition) at 200 ppm [4]

CCS(=O)(=O)c1c(N2Cc3cc4c(cc3C2=O)OC(F)(F)O4)nn2cc(Br)ccc12 [P12, 6-(6-bromo-3-ethylsulfonyl-pyrazolo[1,5-a]pyridin-2-yl)-2,2-difluoro-5H-[1,3]dioxolo[4,5-f]isoindol-7-one]
≥ 80%: percent effect (mortality or growth inhibition) at 200 ppm [2] | mortality at 200 ppm [5] | percent control (mortality, anti-feedant effect or growth inhibition) at 200 ppm [3] | control (mortality, anti-feedant effect or growth inhibition) at 200 ppm [1] | percent effect (mortality or growth inhibition) at 200 ppm [4]

CCS(=O)(=O)c1c(N2Cc3cc4c(cc3C2=O)OC(F)(F)O4)nc2cc(I)ccn12 [P16, 6-(3-ethylsulfonyl-7-iodo-imidazo[1,2-a]pyridin-2-yl)-2,2-difluoro-5H-[1,3]dioxolo[4,5-f]isoindol-7-one]
≥ 80%: percent effect (mortality or growth inhibition) at 200 ppm [2] | percent control (mortality, anti-feedant effect or growth inhibition) at 200 ppm [3] | control (mortality, anti-feedant effect or growth inhibition) at 200 ppm [1] | percent effect (mortality or growth inhibition) at 200 ppm [4]

CCS(=O)(=O)c1c(N2Cc3cc4c(cc3C2=O)OC(F)(F)O4)nc2ccc(I)cn12 [P17, 6-(3-ethylsulfonyl-6-iodo-imidazo[1,2-a]pyridin-2-yl)-2,2-difluoro-5H-[1,3]dioxolo[4,5-f]isoindol-7-one]
≥ 80%: percent effect (mortality or growth inhibition) at 200 ppm [2] | percent control (mortality, anti-feedant effect or growth inhibition) at 200 ppm [3] | control (mortality, anti-feedant effect or growth inhibition) at 200 ppm [1] | percent effect (mortality or growth inhibition) at 200 ppm [4]

Reference: patent US20250145640A1, “2,2-DIFLUORO-5H-[1,3]DIOXOLO[4,5-F]ISOINDOL-7-ONE DERIVATIVES AS PESTICIDES” (SYNGENTA CROP PROTECTION AG, priority 2021, published 2025)
